{
  "source": "patent US7323167B2",
  "about": "“Method of treatment with modified arginine deiminase” (Polaris Group, priority 1997, dated 2008)",
  "key": {"[1]": {"biological_target": "T1, Mycoplasma arginini arginine deiminase (ADIPROT, ATCC 23243), recombinant, expressed in E. coli, SEQ ID NO: 1 (Mycoplasmopsis arginini, UniProt P23793)", "T1 construct": "made in house; host or cells: E. coli", "T1 sequence (P23793 whole entry E126K)": "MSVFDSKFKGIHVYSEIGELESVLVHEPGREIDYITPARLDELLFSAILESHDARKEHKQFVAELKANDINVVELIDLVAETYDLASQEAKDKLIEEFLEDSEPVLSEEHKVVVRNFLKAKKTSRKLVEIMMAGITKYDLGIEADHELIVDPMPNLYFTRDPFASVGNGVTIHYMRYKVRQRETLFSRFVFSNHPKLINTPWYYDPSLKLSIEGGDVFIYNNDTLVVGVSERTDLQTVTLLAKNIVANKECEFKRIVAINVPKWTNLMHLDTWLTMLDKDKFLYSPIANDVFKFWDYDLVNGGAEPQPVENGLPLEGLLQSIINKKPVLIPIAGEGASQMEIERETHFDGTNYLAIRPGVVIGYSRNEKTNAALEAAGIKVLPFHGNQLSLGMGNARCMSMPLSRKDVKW", "assay": "Kinetic characterization (Km, Vmax, affinity) of recombinant ADI with arginine, quantifying citrulline production", "assay_type": "biochemical", "conditions": "about; range given for the enzymes of the three Mycoplasma species; various concentrations of arginine", "source_text": "(§1) Cultures of Mycoplasma arginini (ATCC 23243), Mycoplasma hominus (ATCC 23114) and Mycoplasma arthritides (ATCC 23192) were obtained from the American Type Culture Collection, Rockville, Md.\n(§2) Arginine deiminase was cloned from Mycoplasma arginini, Mycoplasma hominus and Mycoplasma arthritides and expressed in E. coli as previously described by S. Misawa et al, J. Biotechnology, 36:145-155 (1994), the disclosure of which is hereby incorporated herein by reference in its entirety. The top amino acid sequence, identified as ADIPROT, is from Mycoplasma arginini; the middle amino acid sequence, identified as ARTADIPRO, is from Mycoplasma arthritides; and the bottom amino acid sequence, identified as HOMADIPRO, is from Mycoplasma hominus. Each of the amino acid sequences are more than 96% conserved. […] The pH optima was determined using a citrate buffer (pH 5-6.5), a phosphate buffer (pH 6.5-7.5) and a borate buffer (pH 7.5-8.5). The Km and Vmax were determined by incubating the enzyme with various concentrations of arginine and quantifying citrulline production. The Km for the various enzymes was about 0.02 to 0.06 μM and the Vmax was about 15-20 μmol/min/mg, the values of which are within standard error of each other.\n(§3) The proteins from each of the above three species of Mycoplasma have approximately 95% homology and are readily purified by column chromatography. […]"}, "[2]": {"biological_target": "T2, Mycoplasma hominus arginine deiminase (HOMADIPRO, ATCC 23114), recombinant, expressed in E. coli, SEQ ID NO: 3 (Metamycoplasma hominis, UniProt P41141)", "T2 construct": "tag not given", "T2 sequence (P41141 whole entry)": "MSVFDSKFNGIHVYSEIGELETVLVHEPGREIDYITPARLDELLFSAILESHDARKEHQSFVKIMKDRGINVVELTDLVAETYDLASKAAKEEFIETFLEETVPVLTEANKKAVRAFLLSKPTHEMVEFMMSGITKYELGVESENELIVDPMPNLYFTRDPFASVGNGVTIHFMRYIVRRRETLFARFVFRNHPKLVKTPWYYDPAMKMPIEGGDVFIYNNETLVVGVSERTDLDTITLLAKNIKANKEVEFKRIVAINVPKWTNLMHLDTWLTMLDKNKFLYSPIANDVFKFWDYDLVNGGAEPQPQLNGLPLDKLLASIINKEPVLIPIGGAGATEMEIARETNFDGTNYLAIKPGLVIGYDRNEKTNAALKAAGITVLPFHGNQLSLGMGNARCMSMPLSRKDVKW", "assay": "Kinetic characterization (Km, Vmax, affinity) of recombinant ADI with arginine, quantifying citrulline production", "assay_type": "biochemical", "conditions": "about; range given for the enzymes of the three Mycoplasma species; various concentrations of arginine", "source_text": "as §1, §2, §3"}},
  "data": [
    {"smiles": "N=C(N)NCCC[C@H](N)C(=O)O", "note": "[arginine, L-arginine]", "values": [
      {"measurement": "Vmax", "setting": "[1]", "result": "15 to 20", "unit": "µmol/min/mg"},
      {"measurement": "Vmax", "setting": "[2]", "result": "15 to 20", "unit": "µmol/min/mg"}
    ]}
  ]
}
